Article PMC7587356, “High-Throughput Screening for Inhibitors of the SARS-CoV-2 Protease Using a FRET-Biosensor” (Molecules, 2020)
Where a name gives a salt, the structure may show the parent alone. Read-outs that look alike come from different tables or passages of the source.

Molecular target: SARS-CoV-2 3CLpro (Severe acute respiratory syndrome coronavirus 2, UniProt P0DTD1)
Test: biochemical
Assay type: biochemical
Set-up: Replicate_1 / Replicate_2 / mean / mean (LOPAC_screen_w_protease): unit not given here
Settings: for inhibition at 5 µM: 4 h
[1] = sheet LOPAC_screen_w_protease, LOPAC1280 at 5 µM, mean of two replicates, read-out: mean
[2] = sheet LOPAC_screen_w_protease, LOPAC1280 at 5 µM, replicate 1, read-out: Replicate_1
[3] = sheet LOPAC_screen_w_protease, LOPAC1280 at 5 µM, replicate 2, read-out: Replicate_2
[4] = LOPAC1280 primary screen with protease, 5 µM compound, mean of the two replicates
[5] = LOPAC1280 primary screen with protease, 5 µM compound, replicate 1
[6] = LOPAC1280 primary screen with protease, 5 µM compound, replicate 2
[7] = LOPAC1280 primary screen with protease, 5 µM compound, mean of two replicates
[8] = LOPAC1280 primary screen with protease, 5 µM compound, replicate 1, read-out: Replicate_1 (LOPAC_screen_w_protease)
[9] = LOPAC1280 primary screen with protease, 5 µM compound, replicate 2, read-out: Replicate_2 (LOPAC_screen_w_protease)
[10] = sheet LOPAC_screen_w_protease, primary screen of LOPAC1280 at 5 µM with protease, mean of the two replicates
[11] = sheet LOPAC_screen_w_protease, primary screen of LOPAC1280 at 5 µM with protease, replicate 1
[12] = sheet LOPAC_screen_w_protease, primary screen of LOPAC1280 at 5 µM with protease, replicate 2
[13] = sheet LOPAC_screen_w_protease, primary screen with protease, mean of two replicates
[14] = sheet LOPAC_screen_w_protease, primary screen with protease, replicate 1
[15] = sheet LOPAC_screen_w_protease, primary screen with protease, replicate 2
[16] = sheet LOPAC_screen_w_protease, LOPAC1280 at 5 µM, mean of two replicates
[17] = sheet LOPAC_screen_w_protease, LOPAC1280 at 5 µM, replicate 1
[18] = sheet LOPAC_screen_w_protease, LOPAC1280 at 5 µM, replicate 2

For `NCCCCN=C(N)N` [Agmatine sulfate], the inhibition at 5 µM [1] was 1.26%, the inhibition at 5 µM [2] was 0.743% and the inhibition at 5 µM [3] was 1.77%.

With `NCCCP(=O)(O)O` [3-Aminopropylphosphonic acid] the “mean (LOPAC_screen_w_protease)” value [4] was 1.904, the “Replicate_1 (LOPAC_screen_w_protease)” value [5] was 3.261 and the “Replicate_2 (LOPAC_screen_w_protease)” value [6] was 0.5459.

Work on `CC(N/C(=N\C#N)Nc1ccncc1)C(C)(C)C` (stereo not drawn) [Pinacidil] yielded an inhibition at 5 µM [1] of 1.05%, an inhibition at 5 µM [2] of 2.49% and an inhibition at 5 µM [3] of -0.383%.

In the case of `COC(=O)c1c(-c2cc(OC)c(OC)c(OC)c2)c2ccnc(OCc3ncccn3)c2c(=O)n1Cc1ccnc(C)c1` [T-0156], the mean (sheet LOPAC_screen_w_protease, LOPAC1280 primary screen at 5 µM, with protease, mean of the two replicates) is reported as 0.7124, the Replicate_1 (sheet LOPAC_screen_w_protease, LOPAC1280 primary screen at 5 µM, with protease, replicate 1) is reported as 1.2 and the Replicate_2 (sheet LOPAC_screen_w_protease, LOPAC1280 primary screen at 5 µM, with protease, replicate 2) is reported as 0.2248.

In the case of `Nc1ncnc2c1ncn2[C@@H]1O[C@H](C(=O)NC2CC2)[C@@H](O)[C@H]1O` [5'-(N-Cyclopropyl)carboxamidoadenosine], the “mean (LOPAC_screen_w_protease)” value [7] is reported as 1.624, the “Replicate_1 (LOPAC_screen_w_protease)” value [5] is reported as 1.713 and the “Replicate_2 (LOPAC_screen_w_protease)” value [6] is reported as 1.536.

For `CC(C)[N+]1(C)[C@@H]2CC[C@H]1C[C@@H](OC(=O)C(CO)c1ccccc1)C2` (stereo partly drawn) [Ipratropium bromide], the inhibition at 5 µM [8] was 1.02%, the inhibition at 5 µM [9] was 1.99% and the “mean (LOPAC_screen_w_protease)” value [7] was 1.504.

`Cc1nc2sccn2c(=O)c1CCN1CCC(=C(c2ccccc2)c2ccc(F)cc2)CC1` [Diacylglycerol kinase inhibitor I] gave a mean [10] of 3.623, a Replicate_1 [11] of 4.4123 and a Replicate_2 [12] of 2.833.

For `CCN(CCCl)Cc1ccccc1Br.Cl` [DSP-4 hydrochloride], the mean (sheet LOPAC_screen_w_protease, LOPAC1280 primary screen with protease, 5 µM compound, mean of the two replicates) was 6.32, the Replicate_1 (sheet LOPAC_screen_w_protease, LOPAC1280 primary screen with protease, 5 µM compound, replicate 1) was 6.498 and the Replicate_2 (sheet LOPAC_screen_w_protease, LOPAC1280 primary screen with protease, 5 µM compound, replicate 2) was 6.142.

In the case of `C[n+]1cc2c3c(ccc2c2ccc4cc5c(cc4c21)OCO5)OCO3` [Sanguinarine chloride], the inhibition at 5 µM (read-out: Replicate_1 (LOPAC screen with protease)) is reported as 46.2%, the inhibition at 5 µM (read-out: Replicate_2 (LOPAC screen with protease)) is reported as 43.3% and the inhibition at 5 µM (read-out: mean (LOPAC screen with protease)) is reported as 44.8%.

In the case of `COc1ccc2c(c1)c(CC(=O)O)c(C)n2Cc1ccc(Cl)cc1`, the mean (sheet LOPAC_screen_w_protease, primary screen with protease, 5 µM, mean of two replicates) is reported as 0.3525, the Replicate_1 (sheet LOPAC_screen_w_protease, primary screen with protease, 5 µM, replicate 1) is reported as -0.9083 and the Replicate_2 (sheet LOPAC_screen_w_protease, primary screen with protease, 5 µM, replicate 2) is reported as 1.613.

`Nc1ccc(N2C(=O)c3ccccc3C2=O)c(Cl)c1` [N-(4-Amino-2-chlorophenyl)phthalimide] gave a mean [13] of 2.38, a Replicate_1 [14] of 2.0208 and a Replicate_2 [15] of 2.74.

Work on `Cc1nc2c(OCc3ccccc3)cccn2c1CC#N` [SCH-28080] yielded a mean [13] of 2.443, a Replicate_1 [14] of 2.6463 and a Replicate_2 [15] of 2.24.

With `N.N.N.Nc1ncnc2c1ncn2C1OC(COP(=O)(O)OP(=O)(O)OP(=O)(O)OP(=O)(O)OC[C@H]2O[C@@H](n3cnc4c(N)ncnc43)C(O)C2O)[C@@H](O)C1O` (stereo in doubt) the “mean (LOPAC_screen_w_protease)” value [4] was 2.093, the “Replicate_1 (LOPAC_screen_w_protease)” value [5] was 3.71 and the “Replicate_2 (LOPAC_screen_w_protease)” value [6] was 0.4753.

With `CC(O)C(C)OC(=O)[C@@H]1C[C@@H]2c3cccc4c3c(cn4C(C)C)C[C@H]2N(C)C1.O=C(O)/C=C\C(=O)O` (stereo partly drawn) [LY-53,857 maleate] the mean [10] was 3.324, the Replicate_1 [11] was 1.754 and the Replicate_2 [12] was 4.894.

`COc1ccccc1N1CCNCC1.Cl` showed a mean [16] of 0.9162, a Replicate_1 [17] of 1.248 and a Replicate_2 [18] of 0.5839.

`CNC(=O)c1cc2c(cn1)[nH]c1ccccc12` [N-Methyl-beta-carboline-3-carboxamide] gave a mean [16] of 1.084, a Replicate_1 [17] of 1.698 and a Replicate_2 [18] of 0.4701.

With `Br.Br.N=C(N)SCCc1cccc(CCSC(=N)N)c1` [1,3-PBIT dihydrobromide] the “mean (LOPAC_screen_w_protease)” value [7] was 1.415, the “Replicate_1 (LOPAC_screen_w_protease)” value [5] was 1.3545 and the “Replicate_2 (LOPAC_screen_w_protease)” value [6] was 1.476.

Compound `CCN(c1nc(N)c(C(=O)NC(=N)N)nc1Cl)C(C)C` [5-(N-Ethyl-N-isopropyl)amiloride] has an inhibition at 5 µM [1] of 1.01%, an inhibition at 5 µM [2] of 1.63% and an inhibition at 5 µM [3] of 0.388%.

`CC(C[N+](C)(C)C)OC(N)=O` (stereo not drawn) [Bethanechol chloride] was tested, and the inhibition at 5 µM [8] was 0.465%, the inhibition at 5 µM [9] was 2.25% and the “mean (LOPAC_screen_w_protease)” value [7] was 1.356.

With `O=C1Nc2ccccc2/C1=C1/Nc2ccccc2/C1=N\O` [Indirubin-3'-oxime] the “mean (LOPAC_screen_w_protease)” value [7] was 1.392, the “Replicate_1 (LOPAC_screen_w_protease)” value [5] was 2.012 and the “Replicate_2 (LOPAC_screen_w_protease)” value [6] was 0.7725.
